Earlier results as cited in patent US11833157B2, “Precipitation resistant small molecule drug formulations” (Xeris Pharmaceuticals, Inc., priority 2017, dated 2023).

Test system: febrile seizures
Conditions: short term diazepam prophylaxis at times of fever; 39% without

SMILES: CN1C(=O)CN=C(c2ccccc2)c2cc(Cl)ccc21 [diazepam]
- 18 month recurrence rate: 12%
